Results from ChEMBL document CHEMBL3875185, “Structure-anticonvulsant activity studies in the group of (E)-N-cinnamoyl aminoalkanols derivatives monosubstituted in phenyl ring with 4-Cl, 4-CH3 or 2-CH3” (Bioorg Med Chem, 2017).

Legend:
[1] = target: Beta-2 adrenergic receptor (Homo sapiens) (UniProt P07550); assay: Displacement of [3H]CGP 12177 from human recombinant beta2 adrenergic receptor expressed in CHO cells at 100 uM measured after 120 mins by scintillation counting method relative to control; assay type: cell-based
Chain of Beta-2 adrenergic receptor (Homo sapiens) (P07550 whole entry, looked up): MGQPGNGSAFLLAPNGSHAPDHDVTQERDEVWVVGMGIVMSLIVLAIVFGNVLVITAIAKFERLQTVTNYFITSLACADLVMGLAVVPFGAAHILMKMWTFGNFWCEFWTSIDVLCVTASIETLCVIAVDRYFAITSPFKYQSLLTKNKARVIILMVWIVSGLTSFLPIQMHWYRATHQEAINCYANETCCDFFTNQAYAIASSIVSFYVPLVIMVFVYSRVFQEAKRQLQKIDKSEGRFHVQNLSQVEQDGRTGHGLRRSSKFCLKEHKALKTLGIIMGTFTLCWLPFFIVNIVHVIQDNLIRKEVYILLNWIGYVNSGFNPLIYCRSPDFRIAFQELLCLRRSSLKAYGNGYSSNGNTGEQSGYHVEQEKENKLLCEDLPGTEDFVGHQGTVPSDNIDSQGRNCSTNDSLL

[2] = target: D(1B) dopamine receptor (Homo sapiens) (UniProt P21918); assay: Displacement of [3H]SCH 23390 from human recombinant D5 receptor expressed in GH4 cells at 100 uM measured after 60 mins by scintillation counting method relative to control; assay type: cell-based
Chain of D(1B) dopamine receptor (Homo sapiens) (P21918 whole entry): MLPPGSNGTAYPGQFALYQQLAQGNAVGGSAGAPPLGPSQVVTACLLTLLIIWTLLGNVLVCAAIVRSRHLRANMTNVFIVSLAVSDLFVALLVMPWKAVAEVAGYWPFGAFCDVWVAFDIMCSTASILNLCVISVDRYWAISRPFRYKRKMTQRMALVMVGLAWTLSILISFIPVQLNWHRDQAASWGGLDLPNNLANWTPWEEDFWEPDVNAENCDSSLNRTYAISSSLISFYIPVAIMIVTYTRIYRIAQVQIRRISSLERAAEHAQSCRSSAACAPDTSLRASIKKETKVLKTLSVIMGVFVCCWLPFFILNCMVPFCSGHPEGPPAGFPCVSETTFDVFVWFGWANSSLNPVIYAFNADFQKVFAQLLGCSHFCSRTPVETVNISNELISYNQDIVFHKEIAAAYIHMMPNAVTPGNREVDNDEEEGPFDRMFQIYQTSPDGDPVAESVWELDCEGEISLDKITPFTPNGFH

[3] = target: T1, Muscarinic acetylcholine receptor M5 (Homo sapiens) (UniProt P08912); assay: Displacement of [3H]4-DAMP from human recombinant M5 receptor expressed in CHO cells at 100 uM measured after 60 mins by scintillation counting method relative to control; assay type: cell-based
T1 sequence (whole entry): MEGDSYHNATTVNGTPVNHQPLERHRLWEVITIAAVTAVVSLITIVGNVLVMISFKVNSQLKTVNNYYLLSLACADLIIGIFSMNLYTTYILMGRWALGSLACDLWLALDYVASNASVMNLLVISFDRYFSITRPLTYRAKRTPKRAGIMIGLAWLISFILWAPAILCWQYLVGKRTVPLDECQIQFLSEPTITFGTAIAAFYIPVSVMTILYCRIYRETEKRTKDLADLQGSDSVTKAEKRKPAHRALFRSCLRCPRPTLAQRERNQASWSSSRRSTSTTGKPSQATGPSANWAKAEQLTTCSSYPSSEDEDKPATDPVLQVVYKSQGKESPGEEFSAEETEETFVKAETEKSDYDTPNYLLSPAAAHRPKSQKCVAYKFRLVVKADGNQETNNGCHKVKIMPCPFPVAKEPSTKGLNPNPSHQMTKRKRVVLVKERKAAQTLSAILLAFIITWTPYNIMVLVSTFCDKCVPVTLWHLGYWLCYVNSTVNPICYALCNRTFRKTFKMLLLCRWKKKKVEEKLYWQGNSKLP

Mus musculus [4] = assay: Anticonvulsant activity in ip dosed 6-Hz induced seizure mouse model assessed as restoration of normal activity within 10 secs from stimulation by measuring time to peak effect at 44 mA; assay type: functional
Mus musculus [5] = assay: Anticonvulsant activity in ip dosed 6-Hz induced seizure mouse model assessed as restoration of normal activity within 10 secs from stimulation at 44 mA; assay type: functional
Mus musculus [6] = assay: Neurotoxicity in mouse assessed as induction of motor impairment at 30 mg/kg, ip measured at 4 hrs post dose by rotarod method; assay type: toxicity, organism-based; conditions: in vivo
Mus musculus [7] = assay: Anticonvulsant activity in ip dosed pentylenetetrazole induced seizure mouse model assessed as no observable episode of clonic convulsion of at least 5 secs; assay type: functional
[8] = Protection index, ratio of TD50 for neurotoxicity in ip dosed mouse to ED50 for ip dosed 6-Hz induced seizure mouse model at 32 mA; assay type: toxicity, organism-based; conditions: in vivo, read-out: Ratio TD50/ED50
Mus musculus [9] = assay: Anticonvulsant activity in ip dosed pentylenetetrazole induced seizure mouse model assessed as no observable episode of clonic convulsion of at least 5 secs by measuring time to peak effect; assay type: functional
[10] = Neurotoxicity in ip dosed mouse; assay type: toxicity, organism-based; conditions: in vivo
[11] = target: Translocator protein (Rattus norvegicus) (UniProt P16257); assay: Displacement of [3H]PK 11195 from rat heart peripheral-type benzodiazepine receptor at 100 uM measured after 15 mins by scintillation counting method relative to control
Chain of Translocator protein (Rattus norvegicus) (P16257 whole entry, looked up): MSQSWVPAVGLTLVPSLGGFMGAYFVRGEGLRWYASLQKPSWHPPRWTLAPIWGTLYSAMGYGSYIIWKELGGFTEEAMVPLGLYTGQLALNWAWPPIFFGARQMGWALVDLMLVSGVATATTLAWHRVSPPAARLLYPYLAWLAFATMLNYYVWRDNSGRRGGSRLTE

Rattus norvegicus [12] = assay: Anticonvulsant activity in ip dosed pentylenetetrazole induced seizure Sprague-Dawley rat model assessed as no observable episode of clonic convulsion of at least 5 secs by measuring time to peak effect; assay type: functional
Rattus norvegicus [13] = assay: Neurotoxicity in Sprague-Dawley rat assessed as behavioral change at 30 mg/kg, po measured at […] post dose; assay type: toxicity, organism-based; conditions: in vivo
[14] = target: D(1A) dopamine receptor (Homo sapiens) (UniProt P21728); assay: Displacement of [3H]SCH 23390 from human recombinant dopamine D1 receptor expressed in CHO cells at 100 uM measured after 60 mins by scintillation counting method relative to control; assay type: cell-based
Chain of D(1A) dopamine receptor (Homo sapiens) (P21728 whole entry): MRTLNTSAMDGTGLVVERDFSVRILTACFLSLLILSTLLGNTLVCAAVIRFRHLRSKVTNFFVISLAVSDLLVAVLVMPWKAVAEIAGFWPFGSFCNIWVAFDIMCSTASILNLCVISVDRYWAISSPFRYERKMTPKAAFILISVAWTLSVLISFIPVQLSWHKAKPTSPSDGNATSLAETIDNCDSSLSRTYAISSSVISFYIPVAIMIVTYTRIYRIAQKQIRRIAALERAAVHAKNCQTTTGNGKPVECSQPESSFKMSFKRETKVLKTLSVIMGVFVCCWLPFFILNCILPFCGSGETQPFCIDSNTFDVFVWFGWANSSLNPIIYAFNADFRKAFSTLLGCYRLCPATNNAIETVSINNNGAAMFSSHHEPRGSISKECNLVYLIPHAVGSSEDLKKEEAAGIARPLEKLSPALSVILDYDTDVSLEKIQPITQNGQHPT

[15] = Protection index, ratio of TD50 for neurotoxicity in ip dosed mouse to ED50 for ip dosed maximal electroshock induced seizure mouse model; assay type: toxicity, organism-based; conditions: in vivo, read-out: Ratio TD50/ED50
Rattus norvegicus [16] = species on record: Rattus norvegicus; assay: Displacement of [35S]dATPaS from rat cerebral cortex P2Y receptor at 100 uM measured after 60 mins by scintillation counting method relative to control
[17] = target: Sodium-dependent serotonin transporter (Homo sapiens) (UniProt P31645); assay: Displacement of [3H]imipramine from human recombinant 5HT transporter expressed in CHO cells at 100 uM measured after 60 mins by scintillation counting method relative to control; assay type: cell-based
Chain of Sodium-dependent serotonin transporter (Homo sapiens) (P31645 whole entry, looked up): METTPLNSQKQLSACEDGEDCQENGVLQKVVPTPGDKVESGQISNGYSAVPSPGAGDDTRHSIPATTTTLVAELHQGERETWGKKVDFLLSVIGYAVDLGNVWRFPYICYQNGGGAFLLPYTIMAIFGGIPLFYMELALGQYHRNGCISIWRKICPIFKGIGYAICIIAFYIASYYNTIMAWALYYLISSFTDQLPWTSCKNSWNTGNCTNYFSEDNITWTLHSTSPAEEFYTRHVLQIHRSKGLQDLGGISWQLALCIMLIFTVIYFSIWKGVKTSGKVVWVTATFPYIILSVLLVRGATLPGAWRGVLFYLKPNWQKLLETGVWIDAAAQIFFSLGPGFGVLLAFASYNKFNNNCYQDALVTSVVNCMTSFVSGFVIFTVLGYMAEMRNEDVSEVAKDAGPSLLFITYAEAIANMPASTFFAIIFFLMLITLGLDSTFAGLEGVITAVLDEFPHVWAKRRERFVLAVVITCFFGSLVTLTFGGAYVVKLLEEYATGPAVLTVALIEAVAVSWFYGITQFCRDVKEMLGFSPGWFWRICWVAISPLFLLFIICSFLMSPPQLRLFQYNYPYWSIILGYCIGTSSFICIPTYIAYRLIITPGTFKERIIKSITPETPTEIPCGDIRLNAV

[18] = target: T2, Substance-K receptor (Homo sapiens) (UniProt P21452); assay: Displacement of [125I]NKA from human recombinant NK2 receptor expressed in CHO cells at 100 uM measured after 60 mins by scintillation counting method relative to control; assay type: cell-based
T2 sequence (whole entry): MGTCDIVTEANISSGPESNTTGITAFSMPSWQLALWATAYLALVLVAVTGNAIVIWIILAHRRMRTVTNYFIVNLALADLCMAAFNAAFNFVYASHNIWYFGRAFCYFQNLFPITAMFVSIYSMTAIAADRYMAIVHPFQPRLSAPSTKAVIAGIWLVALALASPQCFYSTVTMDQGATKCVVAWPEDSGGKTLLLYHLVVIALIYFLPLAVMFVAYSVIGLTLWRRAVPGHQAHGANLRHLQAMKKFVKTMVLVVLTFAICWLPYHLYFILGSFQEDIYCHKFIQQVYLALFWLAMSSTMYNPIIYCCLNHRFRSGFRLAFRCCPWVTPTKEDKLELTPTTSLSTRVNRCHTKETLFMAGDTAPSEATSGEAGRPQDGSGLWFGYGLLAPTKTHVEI

[19] = target: Prostaglandin E2 receptor EP4 subtype (Homo sapiens) (UniProt P35408); assay: Displacement of [3H]PGE2 from human recombinant EP4 receptor expressed in HEK293 cells at 100 uM measured after 120 mins by scintillation counting method relative to control; assay type: cell-based
Chain of Prostaglandin E2 receptor EP4 subtype (Homo sapiens) (P35408 whole entry): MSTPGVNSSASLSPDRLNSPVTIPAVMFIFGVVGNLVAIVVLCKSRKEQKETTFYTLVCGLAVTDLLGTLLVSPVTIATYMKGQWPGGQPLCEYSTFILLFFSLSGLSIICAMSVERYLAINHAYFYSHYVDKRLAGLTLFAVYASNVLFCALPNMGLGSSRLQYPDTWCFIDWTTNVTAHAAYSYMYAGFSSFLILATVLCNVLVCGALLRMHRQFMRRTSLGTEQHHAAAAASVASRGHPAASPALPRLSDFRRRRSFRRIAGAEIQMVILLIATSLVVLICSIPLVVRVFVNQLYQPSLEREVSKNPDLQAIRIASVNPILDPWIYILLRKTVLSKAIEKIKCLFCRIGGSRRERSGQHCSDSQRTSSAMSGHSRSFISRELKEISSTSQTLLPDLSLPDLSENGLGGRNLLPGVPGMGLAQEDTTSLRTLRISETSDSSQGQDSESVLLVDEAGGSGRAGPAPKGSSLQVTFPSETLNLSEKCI

[20] = target: T3, Muscarinic acetylcholine receptor M4 (Homo sapiens) (UniProt P08173); assay: Displacement of [3H]4-DAMP from human recombinant M4 receptor expressed in CHO cells at 100 uM measured after 60 mins by scintillation counting method relative to control; assay type: cell-based
T3 sequence (whole entry): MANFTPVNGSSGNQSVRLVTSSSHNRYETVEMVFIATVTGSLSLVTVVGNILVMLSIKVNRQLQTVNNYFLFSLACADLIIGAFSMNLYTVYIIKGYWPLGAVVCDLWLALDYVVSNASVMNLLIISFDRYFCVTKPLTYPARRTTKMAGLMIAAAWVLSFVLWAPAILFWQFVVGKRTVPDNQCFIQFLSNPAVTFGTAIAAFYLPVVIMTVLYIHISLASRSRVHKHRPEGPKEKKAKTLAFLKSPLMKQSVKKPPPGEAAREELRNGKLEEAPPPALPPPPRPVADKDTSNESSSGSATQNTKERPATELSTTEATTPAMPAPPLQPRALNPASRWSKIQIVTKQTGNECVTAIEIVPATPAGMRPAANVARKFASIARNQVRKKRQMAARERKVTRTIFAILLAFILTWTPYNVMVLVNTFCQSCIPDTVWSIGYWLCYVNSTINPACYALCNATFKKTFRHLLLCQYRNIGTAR

SMILES | inhibition [1] | inhibition [2] | inhibition [3] | Time (Mus musculus [4]) | ED50 (Mus musculus [5]) | Activity (Mus musculus [6]) | ED50 (Mus musculus [7]) | selectivity ratio [8] | Time (Mus musculus [9]) | TD50 [10] | inhibition [11] | Time (Rattus norvegicus [12]) | Activity (Rattus norvegicus [13]) | inhibition [14] | selectivity ratio [15] | inhibition (Rattus norvegicus [16]) | inhibition [17] | inhibition [18] | inhibition [19] | inhibition [20]
CCC(CO)NC(=O)/C=C/c1ccc(Cl)cc1 (stereo not given) | 2.1% | 12.3% | -9.2% | 0.5 h | 92.9 mg/kg | Non-Toxic | 90.3 mg/kg | 3.41 | 0.25 h | 196 mg/kg | 53% | 0.5 h | Non-Toxic | 18.5% | 3.65 | 18.1% | -2.5% | 48.3% | 29.7% | 1.7%
Cc1ccccc1/C=C/C(=O)N[C@@H](C)CO | -8% | 8% | -7.5% | 0.5 h | 42.3 mg/kg | Non-Toxic | 58.4 mg/kg | 2.86 | 0.25 h | 150 mg/kg | 75.8% | 0.25 h | Non-Toxic | 7.2% | 3.53 | -6.1% | 0.9% | 1.2% | 16.7% | -3.2%
CC(O)CNC(=O)/C=C/c1ccc(Cl)cc1 (stereo not given) | -9% | 13% | -5.9% | 0.25 h | 51.3 mg/kg | Non-Toxic | 102 mg/kg | 4.26 | 0.5 h | 180 mg/kg | 8.1% | 0.5 h | Non-Toxic | 14.9% | 3.24 | 15% | -1.9% | 19.5% | 23.6% | 8.9%
